Entries after “also recorded” stand apart in the source; their conditions may differ.
Tests used:
MOVAS cells = experiment: Cytotoxicity assay, LDH release; format: cell-based, mouse; details: at 2 uM
Summary of the method: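 MOVAS cells were exposed to CPP for 24 h in DMEM+10% FBS with a range of compound concentrations. Cytotoxicity was measured as LDH release by a homogeneous membrane-integrity assay, expressed as background-subtracted percentage of the Triton X-100-lysed signal.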

[1] = test system: WT murine primary chondrocytes; experiment: Murine primary chondrocyte calcification (Alizarin red); format: cell-based, mouse; details: sCPP 24 h, DMEM+10% FBS, 50 uM
Protocol: (a) WT and Cse-deficient chondrocytes were incubated with a CSE activator (SU004, 50 μM) previously identified by high-through put screen, or with the equivalent volume of DMSO (0.1%) for 24 hours in calcification medium. STS 25 mM was used as a positive control for calcification inhibition. Calcium-containing crystals were stained with Alizarin red and quantified. (b) Cytotoxicity was assessed by LDH measurement and expressed as % over 100% cytotoxicity. (c) IL-6 secretion was measured by ELISA in supernatant of WT chondrocytes incubated with SU004 50 μM or STS 25 mM for 24 hours in calcification medium. (d) Primary human chondrocytes from 3 OA patients (P1, P2, P3) were incubated with SU004 50 μM, or with the equivalent volume of DMSO (0.1%) for 24 hours in calcification medium. Calcium-containing crystals were stained with Alizarin red and quantified. (e) Cytotoxicity was assessed by LDH measurement and expressed as % over 100% cytotoxicity. (f) IL-6 secretion was measured by ELISA in supernatant of human chondrocytes incubated for 24 hours with SU004 50 μM in calcification medium. *p<0.05, ** p<0.01, ****p<0.0001.
Primary murine chondrocytes were stimulated with secondary calciprotein particles (sCPP) for 24 h in DMEM+10% FBS in presence of C5 or C6 at 50 uM or vehicle (DMSO). Mineralization was analyzed by Alizarin red staining of the cells (A) and quantified (B). Statistical analysis was determined using one-way ANOVA with **p<0.01 and ***p<0.001.
Chondrocytes were isolated from 6 days old mice (Cse KO, Cse tg, Cbs KO and corresponding WT mice) as described previously (Nasi, So, et al. 2016). Tenocytes were isolated from 6 to 8 weeks old mice (Cse KO and WT) and by double digestion in Collagenase IV NB standard grade (Witec AG). […]
After incubation in calcification media, supernatant was collected for ELISA and LDH measurement, and cell monolayer was washed in PBS, fixed in 10% formol and crystal deposition analyzed through Alizarin red staining and quantified as previously described

ATDCS chondrocytes = experiment: ATDCS chondrocyte mineralization (Alizarin red); format: cell-based; details: sCPP 24 h, different concentrations
Protocol: Alizarin red staining of ATDCS chondrocytes stimulated with sCPP for 24 h in DMEM+10% FBS in presence of different concentrations of compounds C5 and C6. The graphs show Alizarin red absorbance at 570-630 nm. Statistical analysis (in comparison to 0) was determined using one-way ANOVA with *p<0.05, **p<0.01, ***p<0.001, […].

WT primary VSMC = experiment: Primary vascular smooth muscle cell mineralization, wild type; format: cell-based, mouse; details: secondary CPP 24 h, 50 uM, listed as Z20
Protocol: (§1) Primary VSMC were isolated from wild-type (WT) or CSE-deficient (CSE ko) mice. A) Alizarin red staining of WT or CSE ko VSMC stimulated with secondary CPP for 24 h in DMEM+10% FBS and treated or not with 50 uM of compound Z20. […] Statistical analysis was determined using one-way ANOVA (compared to WT vehicle) with ***p<0.001, ****p<0.0001.

CSE ko primary VSMC = experiment: Primary vascular smooth muscle cell mineralization, CSE ko; format: cell-based, mouse; details: secondary CPP 24 h, 50 uM
Protocol: as §1

primary murine tenocytes = experiment: Primary murine tenocyte mineralization (Alizarin red); format: cell-based, mouse; details: secondary CPP 24 h, 50 uM; listed as Z20
Protocol: A) Alizarin red absorbance at 570-630 nm of primary murine tenocytes stimulated with secondary CPP for 24 h in DMEM+10% FBS and treated or not with 50 uM of Z20. B) Percentage of cytotoxicity (LDH %) in tenocytes treated or not with Z20 for 24 h. Statistical analysis was determined using one-way ANOVA with ***p<0.001.
Chondrocytes were isolated from 6 days old mice (Cse KO, Cse tg, Cbs KO and corresponding WT mice) as described previously (Nasi, So, et al. 2016). Tenocytes were isolated from 6 to 8 weeks old mice (Cse KO and WT) and by double digestion in Collagenase IV NB standard grade (Witec AG). Chondrocytes were amplified in DMEM with 10% FBS and 1% Penicillin Streptomycin and used at P1. Tenocytes were amplified in αDMEM with 10% FBS, 0.2 mM L-ascorbic acid, 2-phosphate and 1% Penicillin Streptomycin and used at P1. For crystal formation analysis, cells were cultured for 14 days in calcification medium (BGJb (Gibco) medium with 10% FBS, 0.2 mM L-ascorbic acid, 2-phosphate, 20 mM β-glycerol phosphate and 1% Penicillin Streptomycin). Medium and stimulations were refreshed every 3 days of culture. Alternatively, in some experiments, cells were cultured for 24 h in medium supplemented with secondary calciprotein particles (CPP, final concentration equivalent to […] calcium) to induce calcification as previously described (Aghagolzadeh et al. 2017). […]

HaCaT cells = experiment: Human keratinocyte line mineralization (Alizarin red); format: cell-based; details: secondary CPP 24 h, different concentrations; listed as Z20
Protocol: Immortalized human keratinocytes HaCaT cells were stimulated with secondary CPP and different concentrations of the compound Z20 for 24 h. Cells were then stained with Alizarin Red. […] Statistical analysis was determined using one-way ANOVA with *p<0.05, ***p<0.001.

Compound	Cytotoxicity assay LDH release (% of cytotoxicity) (MOVAS cells)	Mineralization (Alizarin red) [1]	Mineralization (Alizarin red absorbance 570-630 nm) (ATDCS chondrocytes)	Mineralization (Alizarin red, % over WT vehicle) (WT primary VSMC)	Mineralization (Alizarin red, % over WT vehicle) (CSE ko primary VSMC)	Mineralization (Alizarin red absorbance 570-630 nm) (primary murine tenocytes)	Mineralization (Alizarin red absorbance 570-630 nm) (HaCaT cells)
Cn1ncc2c(Nc3cnn(CC4CCCO4)c3)ncnc21 (stereo not shown) [Compound 8, N-{1-methyl-1H-pyrazolo[3,4-d]pyrimidin-4-yl}-1-[(oxolan-2-yl)methyl]-1H-pyrazol-4-amine]	15% at	inhibit primary murine chondrocyte mineralization	inhibit ATDCS mineralization in vitro in a dose dependent fashion	–	–	–	–
CCn1cnc2c(Nc3cnn(CC4CCCO4)c3)ncnc21 (stereo not shown) [Compound 13]	–	–	–	significant inhibition; also recorded: inhibits primary vascular smooth muscle cell mineralization	no inhibition	inhibited calcification; also recorded: inhibits primary murine tenocyte mineralization	inhibited calcification; also recorded: inhibits human keratinocyte line mineralization

Source: patent publication US20240182475A1 (Université de Lausanne, priority 2021, published 2024)
